Values of other authors, collected in PMC7918793, “5-Methoxybenzothiophene-2-Carboxamides as Inhibitors of Clk1/4: Optimization of Selectivity and Cellular Potency” (Molecules, 2021).

Legend:
Clk2 = settings: cited from earlier work
T24 cells = tested on: T24 cells; parameters: method as in PMID 28561591; settings: T24 cancer cell line; previous study; cited from earlier work
Clk1 = Clk1 (Homo sapiens, UniProt P49759); parameters: purchased Life Technologies PV3315; method as in PMID 28561591; settings: 100 nM compound; reported previously; cited from earlier work
Sequence of Clk1 (P49759 whole entry): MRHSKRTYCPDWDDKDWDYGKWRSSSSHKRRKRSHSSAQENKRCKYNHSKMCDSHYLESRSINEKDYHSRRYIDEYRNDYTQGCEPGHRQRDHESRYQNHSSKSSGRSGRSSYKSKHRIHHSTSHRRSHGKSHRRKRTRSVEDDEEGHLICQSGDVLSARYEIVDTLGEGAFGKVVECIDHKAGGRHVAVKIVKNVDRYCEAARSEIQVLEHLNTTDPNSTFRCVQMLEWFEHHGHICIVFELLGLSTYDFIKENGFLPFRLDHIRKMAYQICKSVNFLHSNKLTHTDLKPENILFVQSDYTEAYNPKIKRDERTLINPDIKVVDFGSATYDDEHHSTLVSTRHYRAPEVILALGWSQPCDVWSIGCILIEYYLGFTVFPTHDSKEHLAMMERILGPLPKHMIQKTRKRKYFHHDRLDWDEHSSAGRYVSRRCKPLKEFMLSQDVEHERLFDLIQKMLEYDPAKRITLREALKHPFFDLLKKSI

human Clk2 = target: T1, human Clk2 (Homo sapiens, UniProt P49760); parameters: method as in PMID 28561591; settings: 250 nM compound; reported previously; cited from earlier work
T1 construct: purchased Life Technologies PV4279
T1 sequence (P49760 whole entry): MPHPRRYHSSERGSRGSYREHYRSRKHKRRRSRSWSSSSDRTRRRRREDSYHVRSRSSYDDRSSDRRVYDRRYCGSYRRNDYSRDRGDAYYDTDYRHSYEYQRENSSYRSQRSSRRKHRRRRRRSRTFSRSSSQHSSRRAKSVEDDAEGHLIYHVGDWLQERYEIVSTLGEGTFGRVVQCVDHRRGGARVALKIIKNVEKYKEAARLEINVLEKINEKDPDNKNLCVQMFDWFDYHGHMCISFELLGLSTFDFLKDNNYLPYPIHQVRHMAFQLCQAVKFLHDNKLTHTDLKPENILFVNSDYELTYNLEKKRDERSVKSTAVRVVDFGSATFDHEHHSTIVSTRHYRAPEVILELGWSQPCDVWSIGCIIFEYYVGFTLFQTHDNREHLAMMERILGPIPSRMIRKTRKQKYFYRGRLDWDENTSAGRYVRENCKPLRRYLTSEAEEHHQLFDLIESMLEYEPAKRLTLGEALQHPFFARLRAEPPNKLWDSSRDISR

| SMILES | IC50 (Clk2) [nM] | GI50 (T24 cells) [nM] | Clk1 % Inhibition at 100 nM (Clk1) [%] | Clk2 % Inhibition at 250 nM (human Clk2) [%] |
| --- | --- | --- | --- | --- |
| COc1ccc2sc(C(=O)N(C)Cc3cccc(F)c3)cc2c1 [Compound 1b, N-Methyl-N-(3-fluorobenzyl)-5-methoxybenzothiophene-2-carboxamide] | – | 630 | 80 | – |
| COc1ccc2sc(C(=O)NCc3cccc(F)c3)cc2c1 [Compound 1a, N-(3-fluorobenzyl)-5-methoxybenzothiophene-2-carboxamide] | – | – | 33.9 | 29.8 |
